The record followed here is patent publication US20230303540A1 (Merck Sharp & Dohme LLC, priority 2020, published 2023).

The target in the assay is GST-tagged truncated human mutant G2019S LRRK2 (Homo sapiens, UniProt Q5S007, G2019S). Briefly: LRRK2 G2019S Km ATP LanthaScreen assay. Format: biochemical. Particulars: 134 μM ATP (Km ATP), LRRKtide substrate, mean IC50 values; read-out: LRRK2 pIC50 (converted). A digest of the protocol: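 Compound preincubated 15 min at room temperature with enzyme in pH 8.5 Tris buffer (10 mM MgCl2). Then a 90 min reaction at ambient temperature with 134 μM (Km) ATP and fluorescein-LRRKtide. EDTA stop, Tb anti-phospho antibody TR-FRET; […]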
Consider `Clc1cc2cnc(Nc3cnn(C45CC(C4)C5)c3Cl)nc2cc1N1CCNCC1` [Ex-12.10, N-(1-(bicyclo[1.1.1]pentan-1-yl)-5-chloro-1H-pyrazol-4-yl)-6-chloro-7-(piperazin-1-yl)quinazolin-2-amine], for which the IC50 was 2.13 nM.
Take `COCC12CC(n3cc(Nc4ncc5cc(Cl)c(N6CCC7(CCOC7)CC6)cc5n4)cn3)(C1)C2` [Ex-3.33, 6-chloro-N-{1-[3-(methoxymethyl)bicyclo[1.1.1]pentan-1-yl]-1H-pyrazol-4-yl}-7-(2-oxa-8-azaspiro [4.5]decan-8-yl)quinazolin-2-amine]: the IC50 was 1.15 nM.
Then `Cc1cc(Nc2ncc3cc(Cl)c(N4CCN(C5(C)COC5)CC4)cc3n2)sn1` [Ex-4.62, 6-chloro-7-[4-(3-methyloxetan-3-yl)piperazin-1-yl]-N-(3-methyl-1,2-thiazol-5-yl)quinazolin-2-amine], with 0.793 nM; and `Cc1c(Nc2ncc3cc(Cl)c(N4CCC(C)(O)CC4C)cc3n2)cnn1C1CC1` (single isomer, unassigned) [Ex-9.1, (2R,4S or 2S,4R, or 2S,4S, or 2R,4R)-1-(6-Chloro-2-((1-cyclopropyl-5-methyl-1H-pyrazol-4-yl)amino)quinazolin-7-yl)-2,4-dimethylpiperidin-4-ol], with 4.68 nM.
Then `CC(C)(O)Cn1ncc(Nc2ncc3cc(Cl)c(N4C[C@H]5CC[C@@H](C4)[C@@]5(C)O)cc3n2)c1Cl` [Ex-3.30, (8-syn)-3-(6-chloro-2-{[5-chloro-1-(2-hydroxy-2-methylpropyl)-1H-pyrazol-4-yl]amino}quinazolin-7-yl)-8-methyl-3-azabicyclo[3.2.1] octan-8-ol], with 5.09 nM.
For the molecule `CC1(N2CCN(c3cc4nc(Nc5cnn(C6CC6(F)F)c5Cl)ncc4cc3Cl)CC2)COC1` (single isomer, unassigned) [Ex-4.60, 6-chloro-N-[5-chloro-1-(2,2-(R) or (S)difluorocyclopropyl)-1H-pyrazol-4-yl]-7-[4-(3-methyloxetan-3-yl)piperazin-1-yl]quinazolin-2-amine], the IC50 was 3.24 nM.
`Cc1nn(C2CC3(C2)CN(C2COC2)C3)cc1Nc1ncc2ccc(N3C(=O)C4CCC3C4)cc2n1` (single isomer, unassigned) [Ex-8.5, (1R,4S) or (1S,4R)-2-(2-((3-methyl-1-(2-(oxetan-3-yl)-2-azaspiro[3.3]heptan-6-yl)-1H-pyrazol-4-yl)amino)quinazolin-7-yl)-2-azabicyclo[2.2.1]heptan-3-one]: the IC50 was 0.625 nM.
Regarding `FC(F)(F)C1(n2ncc(Nc3ncc4cc(Cl)c(N5CCN(C6COC6)CC5)cc4n3)c2Cl)CC1` [Ex.3.23, 6-chloro-N-{5-chloro-1-[1-(trifluoromethyl)cyclopropyl]-1H-pyrazol-4-yl}-7-[4-(oxetan-3-yl)piperazin-1-yl]quinazolin-2-amine], the IC50 was 3.45 nM.
With `Cc1c(Nc2ncc3ccc(N4C(=O)OCC4C4CC4)cc3n2)cnn1C1CCOCC1` (single isomer, unassigned) [Ex-7.13, (R) or (S) 4-cyclopropyl-3-(2-{[5-methyl-1-(oxan-4-yl)-1H-pyrazol-4-yl]amino}quinazolin-7-yl)-1,3-oxazolidin-2-one], the IC50 was 11.4 nM.
Regarding `OC1C2CC1CN(c1cc3nc(Nc4cnn(C5CC5)c4)ncc3cc1Cl)C2` (centres unmarked) [Ex-3.28, 3-{6-chloro-2-[(1-cyclopropyl-1H-pyrazol-4-yl)amino]quinazolin-7-yl}-3-azabicyclo [3.1.1]heptan-6-ol], the IC50 is 4.52 nM.
Regarding `CN1CCC2(CCN(c3cc4nc(Nc5cnn(CC(C)(C)O)c5Cl)ncc4cc3Cl)C2)C1` (centres unmarked) [Ex-1.13, 1-(5-chloro-4-{[6-chloro-7-(7-methyl-2,7-diazaspiro[4.4]nonan-2-yl)quinazolin-2-yl]amino}-1H-pyrazol-1-yl)-2-methylpropan-2-ol], the IC50 is 21 nM.
Then `CC1CCC12CN(c1cc3nc(Nc4cnn(C5(C)CC5)c4Cl)ncc3cc1Cl)C2` (single isomer, unassigned) [Ex-4.25, (R) or (S) 6-chloro-N-[5-chloro-1-(1-methylcyclopropyl)-1H-pyrazol-4-yl]-7-(5-methyl-2-azaspiro[3.3]heptan-2-yl)quinazolin-2-amine], with 570 nM; and `CN(C)c1cc2nc(Nc3cnn(C4CC4)c3)ncc2cc1Cl` [Ex-3.29, 6-chloro-N-2-(1-cyclopropyl-1H-pyrazol-4-yl)-N-7-,N-7-dimethylquinazoline-2,7-diamine], with 8.79 nM; and `CC1(N2CCN(c3cc4nc(Nc5cnn(C6CC6(F)F)c5Cl)ncc4cc3Cl)CC2)COCC1O` (single isomer, unassigned) [Ex-6.35, (3S,4S) or (3R,4R) 4-[4-(6-chloro-2-{[5-chloro-1-(2,2-(R) or (S)difluorocyclopropyl)-1H-pyrazol-4-yl]amino}quinazolin-7-yl)piperazin-1-yl]-4-methyloxolan-3-ol], with 20.8 nM.
For the molecule `CC1(N2CCN(c3cc4nc(Nc5cnn(CC(F)F)c5)ncc4cc3Cl)CC2)COC1` [Ex-6.1, 6-chloro-N-(1-(2,2-difluoroethyl)-1H-pyrazol-4-yl)-7-(4-(3-methyloxetan-3-yl)piperazin-1-yl)quinazolin-2-amine], the IC50 is 5.68 nM.
`CN1CCN(c2cc3nc(Nc4cnn(C5(C)CC5)c4Cl)ncc3cc2Cl)CC1=O` [Ex-4.44, 4-(6-chloro-2-{[5-chloro-1-(1-methylcyclopropyl)-1H-pyrazol-4-yl]amino}quinazolin-7-yl)-1-methylpiperazin-2-one]: the IC50 was 20 nM.
With `Cc1c(Nc2ncc3cc(Cl)c(N4CCN(C5COCC5O)CC4)cc3n2)cnn1C(C)(C)C#N` (single isomer, unassigned) [Ex-6.21, (3S,4S) or (3R,4R) 2-[4-({6-chloro-7-[4-(4-hydroxyoxolan-3-yl)piperazin-1-yl]quinazolin-2-yl}amino)-5-methyl-1H-pyrazol-1-yl]-2-methylpropanenitrile], the IC50 was 0.323 nM.
For the molecule `CC1(Cn2ncc(Nc3ncc4cc(Cl)c(N5CCN(C6(C)COC6)CC5)cc4n3)c2Cl)COC1` [Ex-4.52, 6-chloro-N-{5-chloro-1-[(3-methyloxetan-3-yl)methyl]-1H-pyrazol-4-yl}-7-[4-(3-methyloxetan-3-yl)piperazin-1-yl]quinazolin-2-amine], the IC50 is 1.89 nM.
Then `COCC12CC(n3ncc(Nc4ncc5cc(Cl)c(N6C[C@H]7CC[C@@H](C6)[C@@]7(C)O)cc5n4)c3Cl)(C1)C2` [Ex-3.1, (Endo)-3-(6-chloro-2-((5-chloro-1-(3-(methoxymethyl)bicyclo[1.1.1]pentan-1-yl)-1H-pyrazol-4-yl)amino)quinazolin-7-yl)-8-methyl-3-azabicyclo[3.2.1]octan-8-ol], with 0.093 nM.
Turning to `CC1(N2CCN(c3cc4nc(Nc5cnn(C67CC(F)(C6)C7)c5Cl)ncc4cc3Cl)CC2)COCC1O` (single isomer, unassigned) [Ex-13.8, (3S,4S) or (3R,4R)4-(4-(6-chloro-2-((5-chloro-1-(3-fluorobicyclo[1.1.1]pentan-1-yl)-1H-pyrazol-4-yl)amino)quinazolin-7-yl)piperazin-1-yl)-4-methyltetrahydrofuran-3-ol], the IC50 was 1.69 nM.
